Measurements taken from ChEMBL document CHEMBL1150209, “(-)-Grandisin form Cryptocarya crassinervia” (J Nat Prod, 1991).
In brackets after ≈: the same amount, converted by molar mass.

Legend:
[1] = tested on: A549; test: Cytotoxicity against human A549 cells; assay type: functional; conditions: read-out: ED50 (the source's name)
[2] = tested on: HT-29; test: Cytotoxicity against human HT-29 cells; assay type: functional; conditions: read-out: ED50 (the source's name)
[3] = Toxicity against brine shrimp; assay type: organism-based; conditions: artemia, in vivo
[4] = tested on: MCF7; test: Cytotoxicity against human MCF7 cells; assay type: functional; conditions: read-out: ED50 (the source's name)

SMILES: COc1cc([C@@H]2O[C@@H](c3cc(OC)c(OC)c(OC)c3)[C@H](C)[C@H]2C)cc(OC)c1OC [GRANDISIN]
- EC50 [1]: > 10 µg/mL
- EC50 [2]: > 10 µg/mL
- LC50 [3]: 21 µg/mL (≈ 48.6 µM)
- EC50 [4]: > 10 µg/mL
